Square brackets hold non-standard residues; d marks the D form. Ends that are not written are not given here. Peptide text beside a SMILES is read from it. Nle = CCCC[C@H](N)C(=O)O
How the values were obtained:
A172 Cells = assay: PrestoBlue cell viability assay; type: cell-based; conditions: human, 10 μM
Protocol: The effect of the peptides on cell viability can be assessed in cultured cells using suitable assay of viability such as the PrestoBlue® assay (Thermo Fisher Scientific, Waltham, MA). Peptides were initially prepared as 10 mM stock in DMSO and tested at a final concentration of 10 μM (0.1% DMSO). […] PrestoBlue Assay Reagent was purchased from Thermo Fisher Scientific. A172 human brain glioblastoma cell line was purchased from American Type Culture Collection (Manassas, VA). A172 cells were grown in DMEM supplemented with 10% FBS with 100 IU/ml penicillin and 100 μg/ml streptomycin. Cultures were maintained at 37° C. in a humidified atmosphere of 5% CO2/95% air. A172 cells were seeded at 8,000 cells per well on 96-well plates. […] Cell viability was determined using a PrestoBlue Assay reagent […] according to the manufacturer's instructions. Absorption for each sample well on the plate was measured using a Cytation 3 plate reader at 560 nm and 590 nm (BioTek, Winooski, VT). Activity was calculated relative to 0.1% DMSO untreated control. Treatment with 0.1% DMSO alone was used as the cell viability activity control. The relative standard deviation of the DMSO control was <5%.

3T3-L1 Mouse Adipocytes = assay: Free fatty acid levels in cultured mouse adipocytes stimulated with isoproterenol; type: cell-based; conditions: peptide 10 μM, 20-22 hours then 3 hours with 1 nM isoproterenol; relative to isoproterenol treated cells
Protocol: The effect of the peptides on fatty acid metabolism can be assessed using an assay of free fatty acid levels in cultured cells such as mouse adipocytes. Peptides were initially prepared as 10 mM stock in DMSO and used at a final concentration of 10 μM (0.1% DMSO). […] Mouse 3T3-L1 cells purchased from ZenBio were seeded at 3,000 cells per well in 96-well plates in Pre-adipocyte Medium (Zen-Bio) and grown to confluence at 37° C. in a humidified atmosphere of 5% CO2/95% air. Two days after confluence, cells were placed in Adipocyte Differentiation Medium (Zen-Bio) and cultured for three additional days at 37° C. in a humidified atmosphere of 5% CO2/95% air. The culture media was then replaced with Adipocyte Maintenance Medium (Zen-Bio) and the cells maintained for an additional 9-12 days at 37° C. in a humidified atmosphere of 5% CO2/95% air with partial medium replacement every other day. Following 12-15 days of differentiation, test peptides were added at a final concentration of 10 μM in 0.1% DMSO and incubated for 20-22 hours in Adipocyte Maintenance Medium at 37° C. in a humidified atmosphere of 5% CO2/95% air. After 20-22 hours, 1 nM isoproterenol was added to all wells except untreated controls and test peptides were replenished. Insulin at 100 nM was added to control wells. Cells were incubated for 3 hours in Assay Buffer (Zen-Bio) at 37° C. in a humidified atmosphere of 5% CO2/95% air. Free fatty acid concentrations in the media were determined using a Free Fatty Acid Assay kit (Zen-Bio) according to the manufacturer's instructions using a Cytation 3 plate reader at 540 nm (BioTek, Winooski, VT). Absorbance values were corrected for untreated background and expressed relative to isoproterenol treated cells. Treatment with isoproterenol (1 nM) alone was used as the free fatty acid level stimulatory control. The relative standard deviation of the isoproterenol control was <10%. […] Free fatty acid levels for insulin (100 nM) treatment were <5% of the isoproterenol control value.

Compound | PrestoBlue cell viability, Percent of Control Activity (A172 Cells) [%] | Free Fatty Acid Levels, MEAN %ISO (3T3-L1 Mouse Adipocytes) [%]
CC[C@H](C)[C@H](NC(=O)[C@H](CC(C)C)NC(=O)[C@H](CC(C)C)NC(=O)[C@@H](N)CCSC)C(=O)N[C@@H](CC(C)C)C(=O)N[C@H](C(=O)N[C@@H](CC(C)C)C(=O)N[C@H](C(=O)N[C@@H](CC(C)C)C(=O)N[C@H](C)C(=O)O)C(C)C)[C@@H](C)O [compound 3] (H-MLLILTLVL[dA]-OH; N-terminus and C-terminus assumed) | 96.5 | 57.7
CC[C@H](C)[C@H](NC(=O)[C@H](CC(C)C)NC(=O)[C@H](C)NC(=O)[C@@H](N)CCSC)C(=O)N[C@@H](CC(C)C)C(=O)N[C@H](C(=O)N[C@@H](CC(C)C)C(=O)N[C@H](C(=O)N[C@@H](CC(C)C)C(=O)N[C@H](C)C(=O)O)C(C)C)[C@@H](C)O [compound 4] (H-MALILTLVL[dA]-OH; N-terminus and C-terminus assumed) | 99.7 | 71.3
CC[C@H](C)[C@H](NC(=O)[C@H](CC(C)C)NC(=O)[C@H](C)NC(=O)[C@@H](N)CCSC)C(=O)N[C@@H](CC(=O)O)C(=O)N[C@H](C(=O)N[C@@H](CC(C)C)C(=O)N[C@H](C(=O)N[C@@H](CC(C)C)C(=O)N[C@H](C)C(=O)O)C(C)C)[C@@H](C)O [compound 5] (H-MALIDTLVL[dA]-OH; N-terminus and C-terminus assumed) | 97.0 | 95.7
CC[C@H](C)[C@H](NC(=O)[C@@H](NC(=O)CNC(=O)[C@@H](C)NC(=O)[C@@H](N)CCSC)C(C)C)C(=O)N[C@@H](CCCNC(=N)N)C(=O)NCC(=O)N[C@H](C(=O)N[C@@H](CC(C)C)C(=O)N[C@H](C(=O)N[C@@H](CC(C)C)C(=O)O)C(C)C)C(C)C [compound 9] (H-M[dA]GVIRGVLVL-OH; N-terminus and C-terminus assumed) | 94.8 | 88.2
CC[C@H](C)[C@H](NC(=O)[C@@H](NC(=O)CNC(=O)[C@@H](C)NC(=O)[C@@H](N)CCSC)C(C)C)C(=O)N[C@@H](CCCNC(=N)N)C(=O)N[C@@H](C)C(=O)N[C@H](C(=O)N[C@@H](CC(C)C)C(=O)N[C@H](C(=O)N[C@@H](CC(C)C)C(=O)O)C(C)C)C(C)C [compound 10] (H-M[dA]GVIRAVLVL-OH; N-terminus and C-terminus assumed) | 99.6 | 96.4
CC[C@H](C)[C@H](NC(=O)[C@H](Cc1c[nH]c2ccccc12)NC(=O)[C@H](CCC(N)=O)NC(=O)[C@@H](N)CCCNC(=N)N)C(=O)N[C@@H](CC(C)C)C(=O)N[C@@H](Cc1c[nH]cn1)C(=O)N[C@@H](CC(N)=O)C(=O)N[C@H](C)C(=O)NCC(=O)N[C@@H](CCSC)C(=O)N[C@@H](CO)C(=O)N[C@@H](Cc1ccccc1)C(=O)N[C@@H](Cc1ccccc1)C(=O)N[C@@H](CS)C(=O)O [compound 14] (H-RQWILHN[dA]GMSFFC-OH; N-terminus and C-terminus assumed) | 97.5 | 70.4
CSCC[C@H](NC(=O)CNC(=O)[C@@H](C)NC(=O)[C@H](CC(N)=O)NC(=O)[C@H](Cc1c[nH]cn1)NC(=O)[C@H](CC(C)C)NC(=O)[C@H](CCC(=O)O)NC(=O)[C@H](Cc1c[nH]c2ccccc12)NC(=O)[C@H](CCC(N)=O)NC(=O)[C@@H](N)CCCNC(=N)N)C(=O)N[C@@H](CO)C(=O)N[C@@H](C)C(=O)N[C@@H](Cc1ccccc1)C(=O)N[C@@H](CS)C(=O)O [compound 15] (H-RQWELHN[dA]GMSAFC-OH; N-terminus and C-terminus assumed) | 98.8 | 54.5
CSCC[C@H](NC(=O)[C@H](CCCNC(=N)N)NC(=O)[C@H](CCCNC(=N)N)NC(=O)[C@@H](N)CCCNC(=N)N)C(=O)N[C@@H](Cc1ccccc1)C(=O)N[C@@H](CO)C(=O)N[C@@H](CS)C(=O)N[C@@H](Cc1ccc(O)cc1)C(=O)N[C@H](C)C(=O)N[C@@H](Cc1ccc(O)cc1)C(=O)O [compound 19] (H-RRRMFSCY[dA]Y-OH; N-terminus and C-terminus assumed) | 98.8 | 64.0
CCCC[C@H](NC(=O)[C@H](CCCNC(=N)N)NC(=O)[C@H](CCCNC(=N)N)NC(=O)[C@@H](N)CCCNC(=N)N)C(=O)N[C@@H](Cc1ccccc1)C(=O)N[C@@H](CO)C(=O)N[C@@H](CS)C(=O)N[C@@H](Cc1ccc(O)cc1)C(=O)N[C@H](C)C(=O)N[C@@H](Cc1ccc(O)cc1)C(=O)O [compound 20] (H-RRR[Nle]FSCY[dA]Y-OH; N-terminus and C-terminus assumed) | 104.7 | 65.6
CC[C@H](C)[C@H](NC(=O)[C@@H](NC(=O)[C@H](Cc1c[nH]cn1)NC(=O)[C@H](CCCNC(=N)N)NC(=O)[C@H](CC(=O)O)NC(=O)[C@H](Cc1ccc(O)cc1)NC(=O)[C@H](CC(C)C)NC(=O)[C@H](CC(C)C)NC(=O)[C@@H](NC(=O)[C@@H](N)Cc1c[nH]c2ccccc12)C(C)C)C(C)C)C(=O)NCC(=O)NCC(=O)N[C@@H](CO)C(=O)N[C@@H](CC(C)C)C(=O)N[C@@H](CS)C(=O)N[C@H](C(=O)N[C@H](C(=O)N[C@H](C(=O)N[C@@H](CCC(N)=O)C(=O)N[C@H](C(=O)N[C@@H](CCC(=O)O)C(=O)N[C@H](C)C(=O)N[C@@H](Cc1ccc(O)cc1)C(=O)O)C(C)C)C(C)C)C(C)C)C(C)C [compound 23] (H-WVLLYDRHVIGGSLCVVVQVE[dA]Y-OH; N-terminus and C-terminus assumed) | 97.1 | 77.1
CC[C@H](C)[C@H](NC(=O)[C@@H](NC(=O)[C@H](Cc1c[nH]cn1)NC(=O)[C@H](CCCNC(=N)N)NC(=O)[C@H](CC(=O)O)NC(=O)[C@H](Cc1ccc(O)cc1)NC(=O)[C@H](CC(C)C)NC(=O)[C@H](CC(C)C)NC(=O)[C@@H](NC(=O)[C@@H](N)Cc1c[nH]c2ccccc12)C(C)C)C(C)C)C(=O)NCC(=O)NCC(=O)N[C@@H](CO)C(=O)N[C@@H](CC(C)C)C(=O)N[C@@H](CS)C(=O)N[C@H](C(=O)N[C@H](C(=O)N[C@H](C(=O)N[C@@H](CCC(N)=O)C(=O)N[C@H](C(=O)N[C@@H](CCC(=O)O)C(=O)N[C@H](C)C(=O)O)C(C)C)C(C)C)C(C)C)C(C)C [compound 24] (H-WVLLYDRHVIGGSLCVVVQVE[dA]-OH; N-terminus and C-terminus assumed) | 96.7 | 93.7
CC[C@H](C)[C@H](NC(=O)[C@@H](NC(=O)[C@H](Cc1c[nH]cn1)NC(=O)[C@H](CCCNC(=N)N)NC(=O)[C@H](CC(=O)O)NC(=O)[C@H](Cc1ccc(O)cc1)NC(=O)[C@H](CC(C)C)NC(=O)[C@H](CC(C)C)NC(=O)[C@@H](NC(=O)[C@@H](N)Cc1c[nH]c2ccccc12)C(C)C)C(C)C)C(=O)NCC(=O)NCC(=O)N[C@@H](CO)C(=O)N[C@@H](CC(C)C)C(=O)N[C@@H](CS)C(=O)N[C@H](C(=O)N[C@@H](CCC(N)=O)C(=O)N[C@H](C(=O)N[C@@H](CCC(N)=O)C(=O)N[C@H](C(=O)N[C@@H](CCC(=O)O)C(=O)N[C@H](C)C(=O)O)C(C)C)C(C)C)C(C)C [compound 25] (H-WVLLYDRHVIGGSLCVQVQVE[dA]-OH; N-terminus and C-terminus assumed) | 96.5 | 91.6
GWVLLYDRHVIGGSLCVVVQVEAY [compound 22] | 96.5 | 84.7
MAGVIRGVLVL [compound 8] | 92.0 | 76.9

From patent US20240034753A1, “THERAPEUTIC PEPTIDES” (COHBAR, INC., priority 2020, published 2024)
